Results: PMC9736281, “Flavonoid Constituents and Alpha-Glucosidase Inhibition of Solanum stramonifolium Jacq. Inflorescence with In Vitro and In Silico Studies” (Molecules, 2022)
Converted amounts (≈) assume the structure as drawn. Like-named read-outs stand apart in the source and are kept apart here.

What was measured:
alpha-glucosidase enzyme [1] = experiment: Alpha-glucosidase inhibitory activity, enzymatic assay with pNPG; format: biochemical, Saccharomyces cerevisiae; settings: for IC50: purchased standards, DMSO co-solvent not more than 5%
Procedure: All extracts and isolated compounds were examined for their alpha-glucosidase inhibitory activity according to Dej-adisai and Pitakput, 2015 [23]. Briefly, 0.01 M phosphate buffer (50 μL), samples or standard solution (50 μL), and alpha-glucosidase enzyme solution (50 μL) were added to the well plate. The mixture solution was incubated at 37 °C for 2 min. Next, para-nitrophenyl-α-D-glucopyranoside solution (50 μL) was added. The enzymatic inhibition was evaluated from the yellow final product, p-nitrophenol (pNP). The color of the reaction was detected by visible light at 405 nm of SPECTROstar Nano spectrophotometer (BMG Labtech, Ortenberg, Germany). The product absorption was converted to velocity (V) by using Equation (1). Then, the velocity was used to calculated the percentage of inhibition by Equation (2). Furthermore, the ability of sample was performed by IC50 value, which was generated from the calibration curve of percentages of inhibition at five different sample concentrations. Velocity = ∆ Absorbance at 405 nm/∆ Time(1) % Inhibition = [(Vcontrol − Vsample)/Vcontrol] × 100(2)

alpha-glucosidase enzyme [2] = settings: cited from earlier work
alpha-glucosidase enzyme [3] = experiment: Enzyme kinetic study (Lineweaver-Burk plot, secondary plot); format: biochemical, Saccharomyces cerevisieae
Procedure: To determine the mode of inhibition, the enzyme kinetic procedure was performed as described by Sakulkeo et al.. The double reciprocal Lineweaver–Burk plot was constructed and used for the mode of action determination. The inhibition constant (Ki) was conducted from the secondary plot. Briefly, the 5 concentrations of substrate pNPG (2.5–0.125 mM), the enzyme from Saccharomyces cerevisieae (EC 3.2.1.20) at 1 unit/mL, and 3 concentrations of sample were tested in triplicate.

O=c1c(O)c(-c2ccc(O)cc2)oc2cc(O)cc(O)c12 [Compound 3, kaempferol]
% Inhibition at 400 μg/mL (alpha-glucosidase enzyme [1]; alpha-glucosidase): 13.01 ± 2.69% | IC50 (alpha-glucosidase enzyme [1]): 585.63 mg/L (≈ 2050 µM) | Inhibition Type (alpha-glucosidase enzyme [2]; ref [13],[14]): mixed-type | Inhibition Type (alpha-glucosidase enzyme [2]; ref [15]): non-competitive | Inhibition Type (alpha-glucosidase enzyme [3]; listed as Kaempferol): Mixed | Inhibition Type (alpha-glucosidase enzyme [3]; listed as kaempferol): mixed-type

O=c1c(OC2O[C@H](CO)[C@@H](O)[C@H](O)[C@H]2O)c(-c2ccc(O)cc2)oc2cc(O)cc(O)c12 (stereo partly drawn) [Compound 6b, kaempferol 3-O-glucopyranoside]
IC50 (alpha-glucosidase enzyme [1]): >600 mg/L | Inhibition Type (alpha-glucosidase enzyme [2]; ref [16]): non-competitive | Inhibition Type (alpha-glucosidase enzyme [3]; listed as Astragalin): Mixed | Inhibition Type (alpha-glucosidase enzyme [3]; listed as astragalin): mixed-type

COc1cc(O)c2c(=O)c(OC)c(-c3cc(OC)c(OC)c(OC4OC(CO)C(O)C(O)C4O)c3)oc2c1 (stereo not drawn) [Compound 5, 5-hydroxy 3-7-4′-5′-tetramethoxyflavone-3′-O-glucopyranoside]
% Inhibition at 200 μg/mL (alpha-glucosidase enzyme [1]; alpha-glucosidase): 0.84 ± 0.21%

C[C@H]1O[C@H](O[C@H]2[C@H](O)[C@@H](O)[C@@H](O[C@H]3[C@H](O)[C@@H](O)C(O)O[C@@H]3CO)O[C@@H]2CO)[C@H](O)[C@@H](O)[C@@H]1N[C@H]1C=C(CO)[C@@H](O)[C@H](O)[C@H]1O (stereo partly drawn) [Acarbose, acarbose, reference compound]
% Inhibition at 200 μg/mL (alpha-glucosidase enzyme [1]; alpha-glucosidase): 45.27 ± 4.5% | % Inhibition at 400 μg/mL (alpha-glucosidase enzyme [1]; alpha-glucosidase): 60.78 ± 3.61% | % Inhibition at 2 mg/mL (alpha-glucosidase enzyme [1]; alpha-glucosidase, sample at 2 mg/mL): 76.44 ± 3.06% | Inhibition Type (alpha-glucosidase enzyme [3]): Competitive

COc1cc(O)c2c(=O)c(OC)c(-c3cc(O)c(OC)c(OC)c3)oc2c1 [Compound 1, myricetin 3, 4′, 5′, 7-tetramethyl ether]
% Inhibition at 400 μg/mL (alpha-glucosidase enzyme [1]; alpha-glucosidase): 12.78 ± 4.89%

COc1cc(O)c2c(=O)c(OC)c(-c3cc(OC)c(OC)c(OC)c3)oc2c1 [Compound 2, 5-hydroxy-3,7,3′,4′,5′-pentamethoxyflavone]
% Inhibition at 400 μg/mL (alpha-glucosidase enzyme [1]; alpha-glucosidase): 8.51 ± 3.79%

O=c1c(O)c(-c2ccc(O)cc2)oc2cc(O[C@@H]3O[C@H](CO)[C@@H](O)[C@H](O)[C@H]3O)cc(O)c12 [Compound 4, kaempferol 7-O-β-glucopyranoside]
% Inhibition at 400 μg/mL (alpha-glucosidase enzyme [1]; alpha-glucosidase): 7.68 ± 0.33%
